ChEMBL document CHEMBL3272218, “Biologically active derivatives of angiotensin for labeling cellular receptors” (J Med Chem, 1978)
Peptide text beside a SMILES is read from it. * marks the point of attachment. X2 = O=C(O)c1cc(NC(=S)*)ccc1-c1c2ccc(=O)cc-2oc2cc(O)ccc12; X1 = O=Cc1ccc(C(=O)*)cc1

Biological target: T1, Type-1 angiotensin II receptor (Oryctolagus cuniculus) (UniProt P34976)
T1 sequence (whole entry): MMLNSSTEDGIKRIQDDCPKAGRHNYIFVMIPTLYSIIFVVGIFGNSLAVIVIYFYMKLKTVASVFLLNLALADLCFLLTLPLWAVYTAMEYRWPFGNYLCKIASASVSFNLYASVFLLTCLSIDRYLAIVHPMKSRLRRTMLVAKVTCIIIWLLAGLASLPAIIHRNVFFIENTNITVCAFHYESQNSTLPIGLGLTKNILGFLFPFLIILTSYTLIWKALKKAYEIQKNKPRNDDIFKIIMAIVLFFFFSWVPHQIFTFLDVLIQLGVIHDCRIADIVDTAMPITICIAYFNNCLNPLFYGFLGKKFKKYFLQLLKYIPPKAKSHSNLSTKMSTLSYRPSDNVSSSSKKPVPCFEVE
Test: Relative binding affinity of the compound assessed as ratio of [Asp1,Ile5]angiotensin II ED50 to compound ED50 for angiotensin 2 receptor in rabbit aortic strips

SMILES | relative binding affinity (RBA)
CC[C@H](C)[C@H](NC(=O)[C@H](Cc1ccc(O)cc1)NC(=O)[C@@H](NC(=O)[C@H](CCCNC(=N)N)NC(=O)[C@H](CC(=O)O)N1C=C(c2ccccc2)C(=O)C1(O)c1ccccc1)C(C)C)C(=O)N[C@@H](Cc1cnc[nH]1)C(=O)N1CCC[C@H]1C(=O)N[C@@H](Cc1ccccc1)C(=O)O (some centres not stated) | 3
CC[C@H](C)[C@H](NC(=O)[C@H](Cc1ccc(O)cc1)NC(=O)[C@@H](NC(=O)[C@@H](N)CCCN=C(N)N)C(C)C)C(=O)N[C@@H](Cc1c[nH]cn1)C(=O)N1CCC[C@H]1C(=O)N[C@@H](Cc1ccccc1)C(=O)O | 2
CC[C@H](C)[C@H](NC(=O)[C@H](Cc1ccc(O)cc1)NC(=O)[C@@H](N)C(C)C)C(=O)N[C@@H](Cc1cnc[nH]1)C(=O)N1CCC[C@H]1C(=O)N[C@@H](Cc1ccccc1)C(=O)O | 0.03
CCCC[C@H](NC(=O)c1cc(N=[N+]=[N-])ccc1[N+](=O)[O-])C(=O)N[C@@H](CC(=O)O)C(=O)N[C@@H](CCCNC(=N)N)C(=O)N[C@H](C(=O)N[C@@H](Cc1ccc(O)cc1)C(=O)N[C@H](C(=O)N[C@@H](Cc1cnc[nH]1)C(=O)N1CCC[C@H]1C(=O)N[C@@H](Cc1ccccc1)C(=O)O)[C@@H](C)CC)C(C)C | 0.5

Now from value to compound:

relative binding affinity (RBA) | SMILES
8 | CC(C)[C@H](NC(=O)[C@H](CCCNC(=N)N)NC(=O)[C@H](CC(N)=O)NC(=O)c1ccc(C=O)cc1)C(=O)N[C@@H](Cc1ccc(O)cc1)C(=O)N[C@H](C(=O)N[C@@H](Cc1cnc[nH]1)C(=O)N1CCC[C@H]1C(=O)N[C@@H](Cc1ccccc1)C(=O)O)C(C)C (X1-NRVYVHPF-OH)
23 | CC(C)[C@H](NC(=O)[C@H](CCCNC(=N)N)NC(=O)[C@@H](N)CC(N)=O)C(=O)N[C@@H](Cc1ccc(O)cc1)C(=O)N[C@H](C(=O)N[C@@H](Cc1c[nH]cn1)C(=O)N1CCC[C@H]1C(=O)N[C@@H](Cc1ccccc1)C(=O)O)C(C)C (H-NRVYVHPF-OH)
1 | CC(C)[C@H](NC(=O)[C@H](CCCNC(=N)N)NC(=O)[C@H](CC(N)=O)NC(=S)Nc1ccc(-c2c3ccc(=O)cc-3oc3cc(O)ccc23)c(C(=O)O)c1)C(=O)N[C@@H](Cc1ccc(O)cc1)C(=O)N[C@H](C(=O)N[C@@H](Cc1cnc[nH]1)C(=O)N1CCC[C@H]1C(=O)N[C@@H](Cc1ccccc1)C(=O)O)C(C)C (X2-NRVYVHPF-OH)
